Results taken from the supplement of paper PMC10307832.

Columns and labels:
Test in all cases: relative viability (nuclei count vs DMSO), 5 days (fraction); higher = more cells survive
Venetoclax + Foretinib = compound: CC1(C)CCC(CN2CCN(c3ccc(C(=O)NS(=O)(=O)c4ccc(NCC5CCOCC5)c([N+](=O)[O-])c4)c(Oc4cnc5[nH]ccc5c4)c3)CC2)=C(c2ccc(Cl)cc2)C1 [Venetoclax] + COc1cc2c(Oc3ccc(NC(=O)C4(C(=O)Nc5ccc(F)cc5)CC4)cc3F)ccnc2cc1OCCCN1CCOCC1 [Foretinib] (partner 0.25 µM)
Method in brief: (§1)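 Five library-drug doses in √10 steps were combined with a fixed anchor-drug dose, or a single drug was given alone, by pin tool to lung cancer cell lines in 1536-well plates the day after seeding. Nuclei were stained and counted after 5 days. Relative viability is the nuclei count in treated wells over that in vehicle wells, taken as the median of duplicate plates.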

Selumetinib + OSI-027 = compound: Cn1cnc2c(F)c(Nc3ccc(Br)cc3Cl)c(C(=O)NOCCO)cc21 [Selumetinib] + COc1cccc2cc(-c3nc([C@H]4CC[C@H](C(=O)O)CC4)n4ncnc(N)c34)[nH]c12 [OSI-027] (partner 0.5 µM)
Method in brief: as §1

Selumetinib + Lapatinib = compound: Cn1cnc2c(F)c(Nc3ccc(Br)cc3Cl)c(C(=O)NOCCO)cc21 [Selumetinib] + CS(=O)(=O)CCNCc1ccc(-c2ccc3ncnc(Nc4ccc(OCc5cccc(F)c5)c(Cl)c4)c3c2)o1 [Lapatinib] (partner 2 µM)
Method in brief: as §1

Selumetinib + Pemetrexed = compound: Cn1cnc2c(F)c(Nc3ccc(Br)cc3Cl)c(C(=O)NOCCO)cc21 [Selumetinib] + Nc1nc2[nH]cc(CCc3ccc(C(=O)N[C@@H](CCC(=O)O)C(=O)O)cc3)c2c(=O)[nH]1 [Pemetrexed] (partner 0.2 µM)
Method in brief: as §1

Cell Line	relative viability (Venetoclax + Foretinib; first compound 0.01 µM)	relative viability (Venetoclax + Foretinib; first compound 0.03162 µM)	relative viability (Venetoclax + Foretinib; first compound 0.1 µM)	relative viability (Venetoclax + Foretinib; first compound 0.3162 µM)	relative viability (Venetoclax + Foretinib; first compound 1 µM)	relative viability (Selumetinib + OSI-027; first compound 0.02 µM)	relative viability (Selumetinib + OSI-027; first compound 0.06325 µM)	relative viability (Selumetinib + OSI-027; first compound 0.2 µM)	relative viability (Selumetinib + OSI-027; first compound 0.6325 µM)	relative viability (Selumetinib + Lapatinib; first compound 0.02 µM)	relative viability (Selumetinib + Lapatinib; first compound 0.06325 µM)	relative viability (Selumetinib + Lapatinib; first compound 0.2 µM)	relative viability (Selumetinib + Lapatinib; first compound 0.6325 µM)	relative viability (Selumetinib + Pemetrexed; first compound 0.02 µM)	relative viability (Selumetinib + Pemetrexed; first compound 0.06325 µM)	relative viability (Selumetinib + Pemetrexed; first compound 0.2 µM)	relative viability (Selumetinib + Pemetrexed; first compound 0.6325 µM)
LU99A	0.821	0.854	0.78	0.747	0.825	0.338	0.308	0.331	0.301	1.05	1	1.02	0.963	0.195	0.184	0.184	0.245
LXF-289	1.05	0.975	0.991	0.941	0.913	0.796	0.73	0.648	0.519	0.874	0.839	0.761	0.758	0.865	0.848	0.763	0.808
NCI-H23	0.949	0.945	1.01	1.07	0.993	0.605	0.561	0.526	0.443	1.24	1.02	0.825	0.957	0.811	0.43	0.465	0.529
NCI-H322M	0.939	1	0.915	0.972	1.05	0.487	0.434	0.477	0.45	0.524	0.479	0.439	0.438	0.546	0.524	0.564	0.562
NCI-H358	0.69	0.66	0.694	0.695	0.638	0.435	0.359	0.312	0.279	0.38	0.334	0.391	0.314	0.173	0.165	0.144	0.177
NCI-H460	0.978	0.941	0.791	0.997	0.951	0.52	0.425	0.227	0.225	0.921	0.709	0.555	0.399	0.0568	0.082	0.0617	0.0698
NCI-H520	0.628	0.708	0.711	0.949	0.727	0.242	0.243	0.243	0.238	0.894	0.799	0.86	0.883	0.654	0.754	0.752	0.731
NCI-H596	0.77	0.877	1	0.956	0.743	0.775	0.673	0.693	0.571	0.961	1.03	0.921	0.68	0.485	0.576	0.426	0.494
NCI-H647	1.08	1.26	1.13	1.18	1.11	0.717	0.512	0.614	0.478	0.964	0.872	0.876	0.957	0.177	0.178	0.19	0.173
NCI-H650	0.98	0.964	1.06	0.996	1.01	0.66	0.806	0.825	0.826	1.12	1.24	1.34	1.37	1.05	1.25	1.19	1.16
NCI-H661	0.978	1.01	1.02	0.996	0.888	0.804	0.582	0.571	0.57	0.449	0.466	0.427	0.351	0.955	0.875	0.92	0.872
NCI-H838	1.05	1.04	1.06	1.05	0.961	0.31	0.327	0.315	0.252	0.838	0.732	0.861	0.671	0.234	0.214	0.233	0.242
NCI-H1355	0.967	1.05	1.05	1.02	0.978	0.343	0.33	0.278	0.277	0.959	0.785	0.693	0.558	1.01	0.881	0.898	0.788
NCI-H1395	1.06	1.01	1.04	1.07	0.996	0.625	0.641	0.628	0.631	0.982	0.997	0.93	1.05	0.837	0.868	0.694	0.92
NCI-H1437	1.28	1.24	1.25	1.26	1.15	0.802	0.56	0.531	0.324	0.588	0.528	0.351	0.252	0.302	0.253	0.246	0.259
NCI-H1563	0.922	0.968	0.961	1.05	0.94	0.721	0.713	0.779	0.783	0.891	0.851	0.944	0.911	0.835	0.778	0.918	0.898
NCI-H1650	1.12	1.11	1.13	1.2	1.07	0.677	0.405	0.637	0.548	0.704	0.639	0.704	0.721	0.304	0.338	0.331	0.295
NCI-H1651	0.876	0.787	0.834	0.823	0.808	0.815	0.585	0.627	0.693	0.691	0.768	0.763	0.752	0.623	0.57	0.596	0.626
NCI-H1666	0.889	0.946	0.904	0.915	0.943	0.909	0.717	0.793	0.717	0.506	0.286	0.351	0.477	0.811	0.775	0.765	0.755

Cell Line	relative viability (Venetoclax + Foretinib; first compound 0.01 µM)	relative viability (Venetoclax + Foretinib; first compound 0.03162 µM)	relative viability (Venetoclax + Foretinib; first compound 0.1 µM)	relative viability (Venetoclax + Foretinib; first compound 0.3162 µM)	relative viability (Venetoclax + Foretinib; first compound 1 µM)	relative viability (Selumetinib + OSI-027; first compound 0.02 µM)	relative viability (Selumetinib + OSI-027; first compound 0.06325 µM)	relative viability (Selumetinib + OSI-027; first compound 0.2 µM)	relative viability (Selumetinib + OSI-027; first compound 0.6325 µM)	relative viability (Selumetinib + Lapatinib; first compound 0.02 µM)	relative viability (Selumetinib + Lapatinib; first compound 0.06325 µM)	relative viability (Selumetinib + Lapatinib; first compound 0.2 µM)	relative viability (Selumetinib + Lapatinib; first compound 0.6325 µM)	relative viability (Selumetinib + Pemetrexed; first compound 0.02 µM)	relative viability (Selumetinib + Pemetrexed; first compound 0.06325 µM)	relative viability (Selumetinib + Pemetrexed; first compound 0.2 µM)	relative viability (Selumetinib + Pemetrexed; first compound 0.6325 µM)
NCI-H1734	0.88	0.871	0.794	0.823	0.878	0.557	0.635	0.539	0.537	1.12	1.02	1.09	1.04	0.387	0.373	0.404	0.418
NCI-H1755	0.905	0.893	0.951	0.882	0.899	0.745	0.698	0.681	0.673	0.971	0.953	0.91	0.998	0.467	0.409	0.428	0.509
NCI-H1793	0.769	0.71	0.619	0.79	0.607	0.251	0.243	0.231	0.258	0.827	0.581	0.503	0.504	0.782	0.601	0.435	0.517
NCI-H1915	1.08	1.01	1.06	1.01	1.01	0.603	0.425	0.33	0.301	1.06	0.93	0.831	0.682	0.519	0.449	0.533	0.373
NCI-H1944	1.06	0.904	0.847	0.911	0.912	0.4	0.391	0.337	0.335	0.812	0.666	0.63	0.634	0.573	0.476	0.405	0.484
NCI-H1975	0.936	1.02	0.89	0.942	0.929	0.8	0.57	0.676	0.527	0.856	0.65	0.794	0.674	0.288	0.309	0.302	0.283
NCI-H1993	0.786	0.859	0.863	0.783	0.686	0.553	0.585	0.585	0.632	0.931	0.762	0.887	0.706	0.614	0.571	0.553	0.651
NCI-H2009	1.22	1.25	1.1	1.19	1.13	0.52	0.491	0.395	0.261	0.786	0.567	0.596	0.375	1.03	0.945	0.792	0.45
NCI-H2023	0.813	0.924	1.14	0.84	0.653	0.392	0.348	0.318	0.375	0.893	0.692	0.747	0.766	0.247	0.137	0.239	0.195
NCI-H2085	1.01	1.03	0.905	0.919	0.884	0.71	0.499	0.35	0.428	0.75	0.706	0.713	0.68	0.77	0.789	0.677	0.627
NCI-H2087	0.911	1.18	1.13	0.955	0.893	0.466	0.434	0.256	0.177	0.86	0.87	0.56	0.441	0.677	0.649	0.591	0.361
NCI-H2126	1.17	1.21	0.784	1.09	1.06	0.676	0.597	0.577	0.606	0.714	0.671	0.7	0.667	0.627	0.612	0.684	0.568
NCI-H2170	0.971	1.01	0.939	0.995	1	0.712	0.714	0.664	0.684	0.265	0.267	0.274	0.247	0.236	0.266	0.254	0.265
NCI-H2228	0.788	0.906	0.851	1	0.776	0.48	0.512	0.402	0.374	1.01	0.765	0.852	0.695	0.375	0.394	0.333	0.33
NCI-H2347	1.05	1.39	0.85	0.883	0.854	0.412	0.294	0.255	0.177	0.795	0.706	0.574	0.436	0.425	0.402	0.399	0.392
NCI-H2405	1.03	1.08	1.01	0.999	1.04	0.721	0.661	0.585	0.412	1.05	0.852	0.644	0.591	0.999	0.813	0.75	0.736
NCI-H3122	0.954	0.996	0.924	0.942	0.96	0.709	0.512	0.417	0.291	0.882	0.805	0.801	0.754	0.181	0.171	0.156	0.169
PC-3 [JPC-3]	0.939	1.07	1.14	0.987	0.994	0.712	0.752	0.749	0.787	0.45	0.4	0.415	0.45	1.2	0.819	0.82	0.836
